Assay results from US12012417B2, “N-substituted tetrahydrothienopyridine derivatives and uses thereof” (NOVARTIS AG, priority 2018, dated 2024).
Structures can show the parent of a compound that is named as a salt.

Legend:
[1] = test system: Dengue 1 virus MY97-10245; assay: High-content imaging cell-based flavivirus immunodetection (HCl-CFI) assay, Dengue 1; settings: Dengue virus, A549, 48 h, read-out: Dengue 1 virus MY97-10245 in A549 using HCl [Inhibitor/IC50] Qualified AC50
[2] = test system: Dengue 2 virus MY97-10340; assay: High-content imaging cell-based flavivirus immunodetection (HCl-CFI) assay, Dengue 2; settings: Dengue virus, A549, 48 h, read-out: Dengue 2 virus MY97-10340 in A549 using HCl [Inhibitor/IC50] Qualified AC50, A549 cells, MOI 0.3, 48 h, viral E protein expression
Protocol: High-Content Imaging Cell-Based Flavivirus Immunodetection (HCl-CFI) Assay
A549 cells (7×10^3 cells per well) in a 384-well plate were infected with the DENV-2 (MY97-10340) strain at an MOI of 0.3. The cells were then treated with 3-fold, 10-point serial dilutions of test compound. After 48 h, the cells were fixed with paraformadehyde, and the viral E protein detected with 4G2 antibody labeled with Dylight™ 488 (GenScript). Cell nuclei were stained with Draq5 (Pierce/Thermo), and images were taken on the Opera imaging system (Perkin Elmer). A dose-response curve was plotted to calculate the effective concentration of compound needed to reduce expression of E protein by 50% (EC50) using GraphPad Prism.
The resulted EC50 values are summarized in Table 1 below: ±≥1 μM; 1 μM>++≥0.1 μM; 0.1 μm>+++

[3] = test system: Dengue 3 virus MY05-34640-WT-C6/36; assay: High-content imaging cell-based flavivirus immunodetection (HCl-CFI) assay, Dengue 3; settings: Dengue virus, A549, 48 h, read-out: Dengue 3 virus MY05-34640-WT-C6/36 in A549 using HCl [Inhibitor/IC50] Qualified AC50
[4] = test system: Dengue 4 virus MY01-22713; assay: High-content imaging cell-based flavivirus immunodetection (HCl-CFI) assay, Dengue 4; settings: Dengue virus, A549, 48 h, read-out: Dengue 4 virus MY01-22713 in A549 using HCl [Inhibitor/IC50] Qualified AC50, A549 cells, 48 h, viral E protein expression

| SMILES | EC50 [1] [nM] | EC50 [2] [nM] | EC50 [3] [nM] | EC50 [4] [nM] |
| --- | --- | --- | --- | --- |
| CC1Cc2sc(NC(=O)Cc3ccc(S(N)(=O)=O)cc3)c(C#N)c2CN1C(C)c1ccccc1 (single isomer, unassigned) [Example 54, N-(3-cyano-6-methyl-5-(1-phenylethyl)-4,5,6,7-tetrahydrothieno[3,2-c]pyridin-2-yl)-2-(4-sulfamoylphenyl)acetamide] | 100 to 1000 | < 100 | < 100 | < 100 |
| N#Cc1c(NC(=O)Cc2ccc(S(N)(=O)=O)cc2)sc2c1CN(CC13CC(F)(C1)C3)CC2 [Example 1, N-(3-cyano-5-((3-fluorobicyclo[1.1.1]pentan-1-yl)methyl)-4,5,6,7-tetrahydrothieno[3,2-c]pyridin-2-yl)-2-(4-sulfamoylphenyl)acetamide] | > 1000 | 100 to 1000 | 100 to 1000 | 100 to 1000 |
| N#Cc1c(NC(=O)Cc2ccc(S(N)(=O)=O)cc2)sc2c1CN(CC1CC(F)(F)C1)CC2 [Example 2, N-(3-cyano-5-((3,3-difluorocyclobutyl)methyl)-4,5,6,7-tetrahydrothieno[3,2-c]pyridin-2-yl)-2-(4-sulfamoylphenyl)acetamide] | > 1000 | 100 to 1000 | 100 to 1000 | 100 to 1000 |
| CC(C1CCCCC1)N1CCc2sc(NC(=O)Cc3ccc(S(N)(=O)=O)cc3)c(C#N)c2C1 (stereo not drawn) [Example 3, N-(3-cyano-5-(1-cyclohexylethyl)-4,5,6,7-tetrahydrothieno[3,2-c]pyridin-2-yl)-2-(4-sulfamoylphenyl)acetamide] | 100 to 1000 | < 100 | < 100 | < 100 |
| N#Cc1c(NC(=O)Cc2ccc(S(N)(=O)=O)cc2)sc2c1CN(CC1CCCC1)CC2 [Example 4, N-(3-cyano-5-(cyclopentylmethyl)-4,5,6,7-tetrahydrothieno[3,2-c]pyridin-2-yl)-2-(4-sulfamoylphenyl)acetamide] | 100 to 1000 | < 100 | 100 to 1000 | < 100 |
| N#Cc1c(NC(=O)Cc2ccc(S(N)(=O)=O)cc2)sc2c1CN(Cc1cccc(F)c1)CC2 [Example 5, N-(3-cyano-5-(3-fluorobenzyl)-4,5,6,7-tetrahydrothieno[3,2-c]pyridin-2-yl)-2-(4-sulfamoylphenyl)acetamide] | 100 to 1000 | < 100 | < 100 | < 100 |
| N#Cc1c(NC(=O)Cc2ccc(S(N)(=O)=O)cc2)sc2c1CN(CC1CCCCC1)CC2 [Example 6, N-(3-cyano-5-(cyclohexylmethyl)-4,5,6,7-tetrahydrothieno[3,2-c]pyridin-2-yl)-2-(4-sulfamoylphenyl)acetamide] | 100 to 1000 | < 100 | < 100 | < 100 |
| COc1cc(CC(=O)Nc2sc3c(c2C#N)CN(CC2CCCCC2)CC3)ccc1S(N)(=O)=O [Example 7, N-(3-cyano-5-(cyclohexylmethyl)-4,5,6,7-tetrahydrothieno[3,2-c]pyridin-2-yl)-2-(3-methoxy-4-sulfamoylphenyl)acetamide] | < 100 | < 100 | < 100 | < 100 |
| CC(O)(c1ccc(CC(=O)Nc2sc3c(c2C#N)CN(CC2CCCCC2)CC3)cc1)C(F)(F)F (stereo not drawn) [Example 8, N-(3-cyano-5-(cyclohexylmethyl)-4,5,6,7-tetrahydrothieno[3,2-c]pyridin-2-yl)-2-(4-(1,1,1-trifluoro-2-hydroxypropan-2-yl)phenyl)acetamide] | > 1000 | 100 to 1000 | 100 to 1000 | 100 to 1000 |
| COC(=O)c1ccccc1CN1CCc2c(sc(NC(=O)Cc3ccc(S(N)(=O)=O)cc3)c2C#N)C1 [Example 91, Methyl-2-((3-cyano-2-(2-(4-sulfamoylphenyl)acetamido)-4,5-dihydrothieno[2,3-c]pyridin-6-(71-1)-yl)methyl)benzoate hydrochloride] | – | > 1000 | > 1000 | 100 to 1000 |
